The structures appear in SMILES notation.

Data on twelve compounds can be found in patent US9771369B2, “Compounds and methods for kinase modulation, and indications therefor” (Plexxikon Inc., priority 2014, dated 2017).

For the assay, the target named is c-Kit kinase (Homo sapiens (Human), UniProt P10721). Description: c-Kit biochemical assay (AlphaScreen kinase activity). Put shortly: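 IC50 values come from 8-point, 1:3 compound titrations measuring inhibition of peptide phosphorylation by c-Kit (commercial or His-tagged E. coli-expressed) over 1 h at room temperature, read by AlphaScreen PY30/streptavidin beads. Low-ATP version: 10 μM ATP, 100 nM biotin-(E4Y)3; high-ATP version: 100 μM ATP, 30 nM biotin-(E4Y)10.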
Chain of c-Kit kinase (P10721 26-976): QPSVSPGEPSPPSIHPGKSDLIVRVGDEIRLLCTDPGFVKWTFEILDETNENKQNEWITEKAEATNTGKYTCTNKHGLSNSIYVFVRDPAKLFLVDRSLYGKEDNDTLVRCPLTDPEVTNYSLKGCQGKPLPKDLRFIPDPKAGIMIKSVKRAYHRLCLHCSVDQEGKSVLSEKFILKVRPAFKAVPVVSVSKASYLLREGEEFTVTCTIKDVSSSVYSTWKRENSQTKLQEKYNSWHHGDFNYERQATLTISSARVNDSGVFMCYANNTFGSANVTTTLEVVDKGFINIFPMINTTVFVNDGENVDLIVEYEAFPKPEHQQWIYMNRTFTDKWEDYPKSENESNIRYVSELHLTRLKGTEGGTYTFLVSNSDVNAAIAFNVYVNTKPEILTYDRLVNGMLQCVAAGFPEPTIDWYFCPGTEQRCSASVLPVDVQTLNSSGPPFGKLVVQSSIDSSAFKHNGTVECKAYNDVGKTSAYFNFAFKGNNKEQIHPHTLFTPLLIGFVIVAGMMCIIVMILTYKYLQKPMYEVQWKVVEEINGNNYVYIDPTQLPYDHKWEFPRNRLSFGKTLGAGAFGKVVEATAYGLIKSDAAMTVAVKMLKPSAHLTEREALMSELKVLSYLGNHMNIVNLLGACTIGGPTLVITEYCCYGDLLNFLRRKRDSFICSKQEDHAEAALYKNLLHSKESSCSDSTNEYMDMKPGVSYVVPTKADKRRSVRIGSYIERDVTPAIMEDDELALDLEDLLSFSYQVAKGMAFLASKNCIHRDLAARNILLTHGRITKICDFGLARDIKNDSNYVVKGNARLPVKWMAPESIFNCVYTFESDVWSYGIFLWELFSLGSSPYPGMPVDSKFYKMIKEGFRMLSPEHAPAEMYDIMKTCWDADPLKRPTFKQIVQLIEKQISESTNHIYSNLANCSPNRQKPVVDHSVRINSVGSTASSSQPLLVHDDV
In turn, `Cc1nc(C2CCN(c3ncnc4[nH]c(-c5ccc(F)cc5)cc34)CC2)[nH]c1-c1ccc(C(F)(F)F)cc1` [P-3136, 6-(4-fluorophenyl)-4-[4-[4-methyl-5-[4-(trifluoromethyl)phenyl]-1H-imidazol-2-yl]-1-piperidyl]-7H-pyrrolo[2,3-d]pyrimidine] had an IC50 of 1 to 10 µM.
The compound `Cc1nc(C2CCN(c3ncnc4[nH]c(-c5ccc(C#N)cc5)cc34)CC2)[nH]c1-c1ccc(C(F)(F)F)cc1` [P-3137, 4-[4-[4-[4-methyl-5-[4-(trifluoromethyl)phenyl]-1H-imidazol-2-yl]-1-piperidyl]-7H-pyrrolo[2,3-d]pyrimidin-6-yl]benzonitrile] returned an IC50 of 1 to 10 µM.
For `Cc1nc(C2CCN(c3ncnc4[nH]c(-c5cnn(C(F)F)c5)cc34)CC2)[nH]c1-c1ccc2c(c1)OCO2` [P-3138, 4-[4-[5-(1,3-benzodioxol-5-yl)-4-methyl-1H-imidazol-2-yl]-1-piperidyl]-6-[1-(difluoromethyl)pyrazol-4-yl]-7H-pyrrolo[2,3-d]pyrimidine] the value was 0.0001 to 1 µM; for `CCOc1ccc(-c2[nH]c(C3CCN(c4ncnc5[nH]c(-c6cnn(C(F)F)c6)cc45)CC3)nc2C)cc1C` [P-3139, 6-[1-(difluoromethyl)pyrazol-4-yl]-4-[4-[5-(4-ethoxy-3-methyl-phenyl)-4-methyl-1H-imidazol-2-yl]-1-piperidyl]-7H-pyrrolo[2,3-d]pyrimidine], 0.0001 to 1 µM; for `CCC1(c2nc(C)c(-c3ccc(OC)cc3)[nH]2)CCN(c2ncnc3[nH]c(C)cc23)CC1` [P-3140, 4-[4-ethyl-4-[5-(4-methoxyphenyl)-4-methyl-1H-imidazol-2-yl]-1-piperidyl]-6-methyl-7H-pyrrolo[2,3-d]pyrimidine], 1 to 10 µM.
For `CCC1(c2nc(C)c(-c3ccc(OC)c(C)c3)[nH]2)CCN(c2ncnc3[nH]c(C)cc23)CC1` [P-3141, 4-[4-ethyl-4-[5-(4-methoxy-3-methyl-phenyl)-4-methyl-1H-imidazol-2-yl]-1-piperidyl]-6-methyl-7H-pyrrolo[2,3-d]pyrimidine] the value was 1 to 10 µM; for `CCOc1ccc(-c2[nH]c(C3(CC)CCN(c4ncnc5[nH]c(C)cc45)CC3)nc2C)cc1C` [P-3142, 4-[4-[5-(4-ethoxy-3-methyl-phenyl)-4-methyl-1H-imidazol-2-yl]-4-ethyl-1-piperidyl]-6-methyl-7H-pyrrolo[2,3-d]pyrimidine], 1 to 10 µM; for `CCC1(c2nc(C)c(-c3ccc4c(c3)OCO4)[nH]2)CCN(c2ncnc3[nH]c(C)cc23)CC1` [P-3143, 4-[4-[5-(1,3-benzodioxol-5-yl)-4-methyl-1H-imidazol-2-yl]-4-ethyl-1-piperidyl]-6-methyl-7H-pyrrolo[2,3-d]pyrimidine], 1 to 10 µM.
For `CCC1(c2nc(C)c(-c3ccc4c(c3)OCCO4)[nH]2)CCN(c2ncnc3[nH]c(C)cc23)CC1` [P-3144, 4-[4-[5-(2,3-dihydro-1,4-benzodioxin-6-yl)-4-methyl-1H-imidazol-2-yl]-4-ethyl-1-piperidyl]-6-methyl-7H-pyrrolo[2,3-d]pyrimidine] the value was 1 to 10 µM.
With `CCOc1ccc(-c2[nH]c(C3(CC)CCN(c4ncnc5[nH]c(C)cc45)CC3)nc2C)cc1` [P-3145, 4-[4-[5-(4-ethoxyphenyl)-4-methyl-1H-imidazol-2-yl]-4-ethyl-1-piperidyl]-6-methyl-7H-pyrrolo[2,3-d]pyrimidine], the half-maximal inhibitory concentration (IC50) was 1 to 10 µM.
The compound `COc1ccc(-c2[nH]c(C3CCN(c4ncnc5[nH]c(-c6ccnc(OC)c6)cc45)CC3)nc2C(F)(F)F)cc1` [P-3146, 4-[4-[5-(4-methoxyphenyl)-4-(trifluoromethyl)-1H-imidazol-2-yl]-1-piperidyl]-6-(2-methoxy-4-pyridyl)-7H-pyrrolo[2,3-d]pyrimidine] came in with an IC50 of 0.0001 to 1 µM.
`COc1ccc(-c2[nH]c(C3CCN(c4ncnc5[nH]c(-c6ccc(C#N)cc6)cc45)CC3)nc2C(F)(F)F)cc1` [P-3148, 4-[4-[4-[5-(4-methoxyphenyl)-4-(trifluoromethyl)-1H-imidazol-2-yl]-1-piperidyl]-7H-pyrrolo[2,3-d]pyrimidin-6-yl]benzonitrile] yielded an IC50 of 0.0001 to 1 µM.
